Data from patent US8809352B2, “Sulfonamides as inhibitors of Bcl-2 family proteins for the treatments of cancer” (Novartis AG, priority 2009, dated 2014).
pIC50: −log10 of the molar value.

Target: BCL2 (Homo sapiens, UniProt P10415)
Assay: Biacore SPR solution inhibition assay of BCL-2 binding to peptide derivatized sensor surfaces
Conditions: SPR competition; 56 nM BCL2 pre-equilibrated with compound one hour; biotinylated BAK, BAD and NOXA peptide surfaces; 25° C.
From the text: The present method includes utility of a Surface plasmon resonance (SPR)-based biosensor (Biacore™ GE Healthcare, Uppsala, Sweden) to characterize BCL-2 inhibitors.
Biacore™ utilizes the phenomenon of surface plasmon resonance (SPR) to detect and measure binding interactions. In a typical Biacore experiment, one of the interacting molecules (ligand) is immobilized on a flexible dextran matrix while the interacting partner (analyte) is allowed to flow across that surface. A binding interaction results in an increase in mass on the sensor surface and a corresponding direct change in the refractive index of the medium in the vicinity of the sensor surface. Changes in refractive index or signal are recorded in resonance units (R.U.) Signal changes due to association and dissociation of complexes are monitored in a non-invasive manner, continuously and in real-time, the results of which are reported in the form of a sensorgram. The SPR assay is configured to examine solution inhibition of BCL-2 binding to peptide derivatized sensor surfaces to generate […] values as a measure of inhibitor potency.
Biacore™ A100 (GE Healthcare, Uppsala, Sweden) was used to conduct all experiments reported herein. Sensor surface preparation and all interaction analyses experiments were performed at 25° C. Reagents were purchased from GE Healthcare. Running buffer containing 10 mM Hepes, pH7.4, 150 mM sodium chloride, 1.25 mM Dithiothreitol, 3% Dimethyl sulfoxide and 0.05% polysorbate 20 were utilized throughout all analyses.
Biotinylated BAK, BAD and NOXA peptides were diluted to 10 nM in running buffer and captured onto a sensor surface pre-derivatized with streptavidin (sensor chip SA) to peptide surface densities in the range 50-100 R.U. Peptide captured surfaces were blocked with 500 μM PEO2-Biotin.
Interaction analyses were performed by first equilibrating each sample within a 6 point three fold compound dilution series in the range 16 μM to 0.004 nM with 56 nM BCL2 for one hour during instrument start-up procedures. Protein compound mixtures were then injected over each peptide surface in parallel for 60 seconds at a flow-rate of 30 μL/min. 56 nM BCL2 control samples were also prepared and run at regular intervals during the assay. Surface regeneration was performed at the end of each analysis cycle by two 30 second injections of 10 mM Glycine, pH 2.5, 1M Sodium Chloride, 0.05% polysorbate 20. Samples and control compound samples were run in duplicate and controls are also run at regular intervals during the assay to monitor surface and assay performance.
Data analyses are carried out using Biacore™ A100 evaluation software v1.1 to validate assay quality. Binding level report points were used relative to BCL2 control samples to calculate % inhibition values for each compound protein mixture.

Sequence of BCL2 (P10415 whole entry): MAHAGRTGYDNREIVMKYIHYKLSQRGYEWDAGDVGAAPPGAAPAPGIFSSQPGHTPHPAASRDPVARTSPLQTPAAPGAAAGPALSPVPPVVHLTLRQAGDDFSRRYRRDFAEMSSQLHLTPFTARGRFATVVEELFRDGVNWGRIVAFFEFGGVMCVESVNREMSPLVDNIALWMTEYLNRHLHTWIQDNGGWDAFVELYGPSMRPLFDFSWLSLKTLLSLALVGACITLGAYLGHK

| pIC50 | SMILES |
| --- | --- |
| 5.51 | CN(C)CC[C@H](CSc1ccccc1)Nc1c(F)cc(S(=O)(=O)Nc2ncnc3c2CCN(C2CCN(Cc4ccccc4-c4ccc(Cl)cc4)CC2)C3)cc1F [Example 12, (R)-N-(7-(1-((4′-chlorobiphenyl-2-yl)methyl)piperidin-4-yl)-5,6,7,8-tetrahydropyrido[3,4-d]pyrimidin-4-yl)-4-(4-(dimethylamino)-1-(phenylthio)butan-2-ylamino)-3,5-difluorobenzenesulfonamide] |
| 6.30 | CC[C@H](CSc1ccccc1)Nc1ccc(S(=O)(=O)Nc2ncnc3c2CCN(C2CCN(Cc4ccccc4-c4ccc(Cl)cc4)CC2)C3)cc1S(=O)(=O)C(F)(F)F [Example 13] |
| 6.12 | CC(=O)N(CCSc1ccccc1)c1ccc(S(=O)(=O)Nc2ncnc3c2CCN(C2CCN(Cc4cc(F)ccc4-c4ccc(Cl)cc4)CC2)C3)cc1S(=O)(=O)C(F)(F)F [Example 15] |
| 7.39 | CC1(C)CCC(CN2CCC(N3CCc4c(ncnc4NS(=O)(=O)c4ccc(N[C@H](CCN5CCOCC5)CSc5ccccc5)c(S(=O)(=O)C(F)(F)F)c4)C3)CC2)=C(c2ccc(Cl)cc2)C1 [Example 16, (R)-N-(7-(1-((2-(4-chlorophenol)-4,4-dimethylcyclohex-1-enyl)methyl)piperidin-4-yl)-5,6,7,8-tetrahydropyrido[3,4-d]pyrimidin-4-yl)-4-(4-morpholino-1-(phenylthio)butan-2-ylamino)-3-(trifluoromethylsulfonyl)benzenesulfonamide] |
| 7.66 | CN(C)CC[C@H](CSc1ccccc1)Nc1ccc(S(=O)(=O)Nc2ncnc3c2CCN(C2CCN(CC4=C(c5ccc(Cl)cc5)CC(C)(C)CC4)CC2)C3)cc1S(=O)(=O)C(F)(F)F [Example 17, (R)-N-(7-(1-((2-(4-chlorophenyl)-4,4-dimethylcyclohex-1-enyl)methyl)piperidin-4-yl)-5,6,7,8-tetrahydropyrido[3,4-d]pyrimidin-4-yl)-4-(4-(dimethylamino)-1-(phenylthio)butan-2-ylamino)-3-(trifluoromethylsulfonyl)benzenesulfonamide] |
| 7.46 | CN(C)CC[C@H](CSc1ccccc1)Nc1ccc(S(=O)(=O)Nc2ncnc3c2CCN(C2CCN(Cc4ccc(F)cc4-c4ccc(Cl)cc4)CC2)C3)cc1S(=O)(=O)C(F)(F)F [Example 19, (R)-N-(7-(1-((4′-chloro-5-fluorobiphenyl-2-yl)methyl)piperidin-4-yl)-5,6,7,8-tetrahydropyrido[3,4-d]pyrimidin-4-yl)-4-(4-(dimethylamino)-1-(phenylthio)butan-2-ylamino)-3-(trifluoromethylsulfonyl)benzenesulfonamide] |
| 7.66 | CN(C)CC[C@H](CSc1ccccc1)Nc1ccc(S(=O)(=O)Nc2ncnc3c2CCN(C2CCN(Cc4cc(F)ccc4-c4ccc(Cl)cc4)CC2)C3)cc1S(=O)(=O)C(F)(F)F [Example 20] |
| 7.52 | CN(C)CC[C@H](CSc1ccccc1)Nc1ccc(S(=O)(=O)Nc2ncnc3c2CCN(C2CCN(Cc4c(F)cccc4-c4ccc(Cl)cc4)CC2)C3)cc1S(=O)(=O)C(F)(F)F [Example 21, (R)-N—-(7-(1-((4′-chloro-3-fluorobiphenyl-2-yl)methyl)piperidin-4-yl)-5,6,7,8-tetrahydropyrido[3,4-d]pyrimidin-4-yl)-4-(4-(dimethylamino)-1-(phenylthio)butan-2-ylamino)-3-(trifluoromethylsulfonyl)benzenesulfonamide] |
| 7.12 | CN(C)C(=O)C[C@H](CSc1ccccc1)Nc1ccc(S(=O)(=O)Nc2ncnc3c2CCN(C2CCN(Cc4ccccc4-c4ccc(Cl)cc4)CC2)C3)cc1[N+](=O)[O-] [Example 22, (R)-3-(4-(N-(7-(1-((4′-chlorobiphenyl-2-yl)methyl)piperidin-4-yl)-5,6,7,8-tetrahydropyrido[3,4-d]pyrimidin-4-yl)sulfamoyl)-2-nitrophenylamino)-N,N-dimethyl-4-(phenylthio)butanamide] |
| 7.29 | CCN1CCN(CC[C@H](CSc2ccccc2)Nc2ccc(S(=O)(=O)Nc3ncnc4c3CCN(C3CCN(Cc5ccccc5-c5ccc(Cl)cc5)CC3)C4)cc2S(=O)(=O)C(F)(F)F)CC1 [Example 23, N-{7-[1-(4′-Chloro-biphenyl-2-ylmethyl)-piperidin-4-yl]-5,6,7,8-tetrahydro-pyrido[3,4-d]pyrimidin-4-yl}-4[(R)-3-(4-ethyl-piperazin-1-yl)-1-phenylsulfanylmethyl-propylamino]-3-trifluoromethanesulfonyl-benzenesulfonamide] |
| 7.05 | CC(C1=C(c2ccc(Cl)cc2)CC(C)(C)CC1)N1CCC(N2CCc3c(ncnc3NS(=O)(=O)c3ccc(N[C@H](CCN4CCOCC4)CSc4ccccc4)c(S(=O)(=O)C(F)(F)F)c3)C2)CC1 (stereo partly drawn) [Example 24] |
| 6.85 | CN(C)CC[C@H](COCc1ccccc1)Nc1ccc(S(=O)(=O)Nc2ncnc3c2CCN(C2CCN(Cc4ccccc4-c4ccc(Cl)cc4)CC2)C3)cc1S(=O)(=O)C(F)(F)F [Example 25, 4-((R)-1-Benzyloxymethyl-3-dimethylamino-propylamino)-N-{7-[1-(4′-chloro-biphenyl-2-ylmethyl)-piperidin-4-yl]-5,6,7,8-tetrahydro-pyrido[3,4-d]pyrimidin-4-yl}-3-trifluoromethanesulfonyl-benzenesulfonamide] |
| 7.32 | CN(C)CC[C@H](CSc1cccc(Cl)c1)Nc1ccc(S(=O)(=O)Nc2ncnc3c2CCN(C2CCN(Cc4ccccc4-c4ccc(Cl)cc4)CC2)C3)cc1S(=O)(=O)C(F)(F)F [Example 26, N-{7-[1-(4′-Chloro-biphenyl-2-ylmethyl)-piperidin-4-yl]-5,6,7,8-tetrahydro-pyrido[3,4-c]pyrimidin-4-yl}-4-[(R)-1-(3-chloro-phenylsulfanylmethyl)-3-dimethylamino-propylamino]-3-trifluoromethanesulfonyl-benzenesulfonamide] |
| 6.69 | CC1CC(N2CCc3c(ncnc3NS(=O)(=O)c3ccc(N[C@H](CCN4CCOCC4)CSc4ccccc4)c(S(=O)(=O)C(F)(F)F)c3)C2)CCN1CC1=C(c2ccc(Cl)cc2)CC(C)(C)CC1 (stereo partly drawn) [Example 27, N-(7-(1-((2-(4-chlorophenyl)-4,4-dimethylcyclohex-1-enyl)methyl)-2-methylpiperidin-4-yl)-5,6,7,8-tetrahydropyrido[3,4-d]pyrimidin-4-yl)-4-((R)-4-morpholino-1-(phenylthio)butan-2-ylamino)-3-(trifluoromethylsulfonyl)benzenesulfonamide] |
| 7.36 | CN(C)CC[C@H](CSc1ccccc1Cl)Nc1ccc(S(=O)(=O)Nc2ncnc3c2CCN(C2CCN(CC4=C(c5ccc(Cl)cc5)CC(C)(C)CC4)CC2)C3)cc1S(=O)(=O)C(F)(F)F [Example 28, (R)-N-(7-(1((2-(4-chlorophenyl)-4,4-dimethylcyclohex-1-enyl)methyl)piperidin-4-yl)-5,6,7,8-tetrahydropyrido[3,4-d]pyrimidin-4-yl)-4-(1-(2-chlorophenylthio)-4-(dimethylamino)butan-2-ylamino)-3-(trifluoromethylsulfonyl)benzenesulfonamide] |
| 7.14 | CC(c1ccccc1-c1ccc(Cl)cc1)N1CCC(N2CCc3c(ncnc3NS(=O)(=O)c3ccc(N[C@H](CCN(C)C)CSc4ccccc4Cl)c(S(=O)(=O)C(F)(F)F)c3)C2)CC1 (stereo partly drawn) [Example 29, N-(7-(1-(1-(4′-chlorobiphenyl-2-yl)ethyl)piperidin-4-yl)-5,6,7,8-tetrahydropyrido[3,4-d]pyrimidin-4-yl)-4-((R)-1-(2-chlorophenylthio)-4-(dimethylamino)butan-2-ylamino)-3-(trifluoromethylsulfonyl)benzenesulfonamide] |
| 6.89 | O=S(=O)(Nc1ncnc2c1CCN(C1CCN(Cc3ccccc3-c3ccc(Cl)cc3)CC1)C2)c1ccc(N[C@H](CCN2CCCCC2)CSc2ccccc2)c(S(=O)(=O)C(F)(F)F)c1 [Example 30, (R)-N-(7(1-((4′-chlorobiphenyl-2-yl)methyl)piperidin-4-yl)-5,6,7,8-tetrahydropyrido[3,4-d]pyrimidin-4-yl)-4-(l-(phenylthio)-4-(piperidin-1-yl)butan-2-ylamino)-3-(trifluoromethylsulfonyl)benzenesulfonamide] |
| 7.08 | CC(c1cc(F)ccc1-c1ccc(Cl)cc1)N1CCC(N2CCc3c(ncnc3NS(=O)(=O)c3ccc(N[C@H](CCN4CCOCC4)CSc4ccccc4)c(S(=O)(=O)C(F)(F)F)c3)C2)CC1 (stereo partly drawn) [Example 31, N-(7-(1-(1-(4′-chloro-4-fluorobiphenyl-2-yl)ethyl)piperidin-4-yl)-5,6,7,8-tetrahydropyrido[3,4-d]pyrimidin-4-yl)-4-((R)-4-morpholino-1-(phenylthio)butan-2-ylamino)-3-(trifluoromethylsulfonyl)benzenesulfonamide] |
